For orientation: Emax means the maximal effect, on the per cent scale that the assay sets. For orientation: EC50 means the concentration needed to bring the measured effect to its halfway point. The low end stands for greater potency, the high end for weaker potency.

The record followed here is publication PMC11231141, “Ube3a unsilencer for the potential treatment of Angelman syndrome” (Nature Communications, 2024).

Where two headings read alike, the source gives them in different places.

In experiment [1] the test system is paternal UBE3A-YFP. Briefly: paternal UBE3A-YFP unsilencing, high-content imaging in mouse primary neurons (Ube3a m+/pYFP). Particulars: for Emax: Neuron, highest concentration with at least 90% neurons alive, read-out: EMAX (% patUBE3A-YFP+). The experiment is classed as cell-based. The protocol: We aimed to identify novel unsilencers of paternal Ube3a by employing a previously developed high-content small molecule screen. This screen was performed in primary neurons derived from knock-in mice harboring a yellow fluorescent protein (YFP) fused to the paternal allele of Ube3a[25], allowing for fluorescence-based identification of the paternal allele-specific expression of UBE3A-YFP (detected by a GFP antibody enhancement) (Fig. 1a and Supplementary Table 1). We screened >2800 compounds from a Pfizer chemogenetic library, which contains small molecules selected to cover a broad spectrum of pharmacological space. We screened small molecules at 1 μM concentration and used 0.3 μM topotecan, a topoisomerase inhibitor that can downregulate the Ube3a-ATS and unsilence the paternal Ube3a, as a positive control (Fig. 1b)[10]. Small molecules that increase the UBE3A-YFP signal represent putative paternal Ube3a unsilencers.
Immunofluorescence for high-content imaging analysis was performed as previously described with slight modifications. Following drug treatment at DIV7, primary neurons were fixed at DIV10 with 4% paraformaldehyde in PBS at room temperature (RT) for 10 min. After three brief washes in PBS, neurons were permeabilized with PBS/1% Triton-X-100 at RT for 10 min, followed by blocking with PBS including 5% normal goat serum and 0.2% Triton-X-100 (NGST) at RT. […] All acquired images were analyzed by CellProfiler[48]. The mean GFP signal from each drug-treated well was normalized to the average mean GFP signal from DMSO-treated neurons. […] Fluorescent images were acquired using a Nikon Ti2 eclipse fluorescence microscope (Nikon Instruments Inc.) and analyzed using Nikon NIS-Elements software (Nikon Instruments Inc.). Antibody-enhanced UBE3A-YFP fluorescence intensities were determined from DAPI and NeuN double-positive neurons in drug-treated wells and normalized to neurons in DMSO-treated wells. The cytotoxicity of a compound was determined by calculating the percentage of neurons (DAPI and NeuN double-positive cells) alive in drug-treated wells compared to the DMSO-treated wells. For determining the effectiveness of unsilencing, the percent neurons expressing GFP signal in neurons (DAPI and NeuN double-positive cells) in drug-treated wells was thresholded such that the percent GFP positive neurons in DMSO-treated wells was set to ~5%. Concentrations where more than 10% of neurons were dead compared to DMSO-treated wells were manually removed and the last included data point was set as a maximum efficacy. Sigmoidal curve fitting for the dose-response analysis was performed using GraphPad Prism software version 8.0 (GraphPad Software).

Experiment [2] concerns paternal UBE3A-YFP. Briefly: paternal UBE3A-YFP western blot after ASO-mediated knockdown of candidate targets. Particulars: for unsilencing of paternal Ube3a after ASO-mediated knockdown of TOP1: 10 µM ASO at DIV5, 1 µM (S)-PHA533533 or 0.3 µM topotecan 72 h from DIV7. The format is cell-based, mouse. The protocol:
. […] Scrambled ASO together with DMSO treatment were used as controls for any non-specific effects.
The addition of TOP1 catalyzes supercoiled DNA substrate (lane 1) into slower migrating relaxed DNA (lane 2). […] . Following the treatment, the relative quantities of (h) Snord115, (i) Dlg2, (j) Nrxn3, (k) Malat1, (l) Pantr1, and (m) Airn transcripts were determined by quantitative RT-PCR (n = 4 experiments; mean ± SEM).
2’ MOE gapmer antisense oligonucleotides (ASOs) designed to target mouse Cdk2 sequence […], Cdk5 sequence […], Top1 sequence […], and scrambled […] sequence as a negative control (Integrated DNA Technologies) were formulated in water and added to cultured cortical neurons grown on 6-well plates at DIV5 at a final concentration of 10 μM. Neurons were further cultured and treated at DIV7 with vehicle (0.1% DMSO) or the indicated compounds for 72 h. For western blot analysis, neurons were washed once with PBS and then lysed using RIPA buffer (50 mM Tris-HCl pH 8.0, 150 mM NaCl, 1% NP−40, 0.5% Na-deoxycholate, 0.5% SDS) and protease inhibitor cocktail (P8340, MilliporeSigma) on ice.

In experiment [3] the test system is Snord115, Dlg2, Nrxn3, Malat1. As to the kind of experiment: quantitative RT-PCR of long genes in cultured mouse neurons. The experiment is classed as cell-based. Particulars: 1 µM (S)-PHA533533 or 0.3 µM topotecan, 72 h, vs DMSO. The text has this:
(§1) […]. […] […]. […] […]. […] […].

For a further experiment, the system named is Pantr1, Airn. Briefly: quantitative RT-PCR of antisense lncRNA transcripts in cultured mouse neurons. The experiment is classed as cell-based. Particulars: 1 µM (S)-PHA533533 or 0.3 µM topotecan, 72 h, vs DMSO.
Text: as §1

The target in a further experiment is T1, TOP1 (Homo sapiens, UniProt P11387).
T1 construct: purchased TopoGEN
T1 sequence (P11387 1-765): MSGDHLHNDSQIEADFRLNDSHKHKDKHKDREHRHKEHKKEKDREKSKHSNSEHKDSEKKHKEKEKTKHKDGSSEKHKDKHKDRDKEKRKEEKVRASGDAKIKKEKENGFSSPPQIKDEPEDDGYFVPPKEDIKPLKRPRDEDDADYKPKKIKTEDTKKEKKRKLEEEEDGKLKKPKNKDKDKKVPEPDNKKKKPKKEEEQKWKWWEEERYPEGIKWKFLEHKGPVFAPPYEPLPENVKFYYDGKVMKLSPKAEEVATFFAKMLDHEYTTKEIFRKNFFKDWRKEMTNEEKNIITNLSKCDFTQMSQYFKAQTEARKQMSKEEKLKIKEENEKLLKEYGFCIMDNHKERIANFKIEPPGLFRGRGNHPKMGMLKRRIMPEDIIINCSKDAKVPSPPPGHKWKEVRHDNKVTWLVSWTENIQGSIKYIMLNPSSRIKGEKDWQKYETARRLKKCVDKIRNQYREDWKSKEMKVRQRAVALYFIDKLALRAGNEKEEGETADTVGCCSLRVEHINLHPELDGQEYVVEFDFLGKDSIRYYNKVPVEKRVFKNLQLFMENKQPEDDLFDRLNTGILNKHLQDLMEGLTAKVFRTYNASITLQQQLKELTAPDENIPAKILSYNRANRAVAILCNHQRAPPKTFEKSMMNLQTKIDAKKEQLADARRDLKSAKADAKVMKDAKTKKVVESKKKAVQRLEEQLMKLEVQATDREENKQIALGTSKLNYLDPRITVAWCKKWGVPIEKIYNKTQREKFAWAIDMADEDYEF
Briefly: TOP1-mediated DNA relaxation assay. The format is biochemical. Particulars: 3 μM topotecan; increasing concentrations of (S)- and (R)-PHA533533; vs DMSO.
Text: as §1
The Pfizer chemogenetic library and PHA533533 derivatives were provided by the Compound Transfer Program (CTP) at Pfizer. Topotecan hydrochloride salt was purchased from Cayman Chemicals (Item No. 14129). […] […]. The Human Topoisomerase I Assay Kit was purchased from TopoGEN and performed according to the manufacturer’s protocols.

In the case of `CC[C@@]1(O)C(=O)OCc2c1cc1n(c2=O)Cc2cc3c(CN(C)C)c(O)ccc3nc2-1` [Topotecan, reference compound], the “paternal UBE3A-YFP immunofluorescent signal” value with paternal UBE3A-YFP [1] (0.3 μM topotecan, 1 μM (R)- or (S)-PHA533533, 72 h) was “high levels of paternal UBE3A-YFP”. Further, the Emax in the experiment on paternal UBE3A-YFP [1] (Mus musculus, 72 h, mean ± SEM) stood at 66.31 ± 0.45%. Besides, it took 80 ± 20 nM to reach a half-maximal effect in the experiment on paternal UBE3A-YFP [1] (Mus musculus, Primary neuron, 72 h, mean ± SEM, n = 3) (EC50). Further, in the experiment with paternal UBE3A-YFP [2], the “unsilencing of paternal Ube3a after ASO-mediated knockdown of TOP1” value is “almost completely occluded”. In experiment [3], the “expression of long genes (Snord115, Dlg2, Nrxn3, Malat1)” value is given as “significantly impaired the expression of all the measured long genes”. For the same compound, the “expression levels of Pantr1 or Airn” value in the experiment on Pantr1, Airn is “neither topotecan nor (S)-PHA533533 treatments changed the expression levels”. The “inhibition of TOP1 catalytic activity to relax supercoiled DNA” value on TOP1 is “clearly inhibited TOP1 catalytic activity”.

Turning to `C[C@H](C(=O)Nc1cc(C2CC2)[nH]n1)c1ccc(N2CCCC2=O)cc1` [(S)-PHA533533], in the experiment on paternal UBE3A-YFP [1], the “paternal UBE3A-YFP immunofluorescent signal” value is “high levels of paternal UBE3A-YFP”. Besides, the Emax with paternal UBE3A-YFP [1] (Mus musculus, 72 h, mean ± SEM) worked out at 80 ± 8.41%. Besides, the “unsilencing of paternal UBE3A-YFP after ASO-mediated knockdown of CDK5” value with paternal UBE3A-YFP [2] (10 µM ASO at DIV5, 1 µM (S)-PHA533533 72 h from DIV7) is “nor did it occlude the unsilencing”. In the experiment on paternal UBE3A-YFP [2], the “unsilencing of paternal Ube3a after ASO-mediated knockdown of TOP1” value is listed as “did not affect”. Further, the “expression of long genes (Snord115, Dlg2, Nrxn3, Malat1)” value in experiment [3] was “significantly reduced the expression of only Snord115”. Further, the “expression levels of Pantr1 or Airn” value with Pantr1, Airn is listed as “neither topotecan nor (S)-PHA533533 treatments changed the expression levels”. The “inhibition of TOP1 catalytic activity to relax supercoiled DNA” value against TOP1 is on record as “had no effect on the TOP1 activity”.
